For one experiment, the system named is LLC tumor cells. The experiment can be described thus: LLC tumor cell growth (WST-1 assay). The note with it: 48 h. The experiment is classed as cell-based.
For another experiment, the target named is T1, FROUNT-CCR5 interaction (Homo sapiens, UniProt Q9BW27).
T1 construct: GST-fused FROUNT (FNT-C)
T1 sequence (Q9BW27 500-656 limits assumed): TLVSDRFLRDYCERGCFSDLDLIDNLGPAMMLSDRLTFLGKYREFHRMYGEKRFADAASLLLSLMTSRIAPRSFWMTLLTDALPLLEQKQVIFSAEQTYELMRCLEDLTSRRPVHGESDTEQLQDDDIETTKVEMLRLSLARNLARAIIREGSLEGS
The experiment can be described thus: HTRF FROUNT-CCR5 interaction assay. Format: binding. (In general: Time-resolved FRET reads energy transfer from a long-lived donor to a nearby acceptor.)

For experiment [1], the system named is MMTV-PyVT spontaneous mammary tumor. The experiment can be described thus: MMTV-PyVT spontaneous mammary tumor model. The note with it: treatment from age of 17 weeks. The experiment is classed as in vivo, mice.
For another experiment, the target named is T2, C603S FROUNT (Homo sapiens, UniProt Q9BW27, C603S/L538E/P612S).
T2 construct: 50 µM CRBD of FROUNT (a.a. 532–656) bearing the L538E/P612S mutations or its mutant (C603S); made in house
T2 sequence (Q9BW27 532-656 L538E/C603S/P612S): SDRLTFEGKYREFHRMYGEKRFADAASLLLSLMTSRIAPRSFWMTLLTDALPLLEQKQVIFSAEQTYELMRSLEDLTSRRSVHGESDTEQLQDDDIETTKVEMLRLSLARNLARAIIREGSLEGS
The experiment in a line: NMR titration of C603S FROUNT mutant. The experiment is classed as binding. The note with it: 50 µM DSF, 50 µM mutant. Here is the method:
All ^1H–^15N heteronuclear single quantum correlation (HSQC) NMR spectra were measured at 25 °C on a Bruker 600-MHz AVANCE III spectrometer with a cryogenic probe. […] The assignments of the backbone ^1H^N and ^15N NMR signals of CRBD were performed, based on the previous paper. […] Combined chemical shift differences Δδ was calculated by Δδ = [(ΔδHN)^2 + (ΔδN/6.5)^2]^1/2, where ΔδHN and ΔδN are the chemical shift differences for ^1H^N and ^15N, respectively.

Experiment [2] concerns PI3K activation in CCR2-expressing Chinese hamster ovary cells. The experiment can be described thus: PH-Akt domain translocation assay. Format: cell-based. The note with it: 25 µM DSF for 30 min. The text has this:
CCR2-expressing Chinese hamster ovary cells were transfected with PH-Akt-tHcRed. […] Cells were visualized with confocal microscopy using SP5 (Leica).

The test system of the next experiment is peritoneal macrophages. The experiment in a line: CCL2-induced pseudopodia protrusion of macrophages. The note with it: 25 µM, 1 h pre-incubation. Format: cell-based, mice. Here is the method:
Peritoneal macrophages were isolated from mice, seeded in the 8-well glass-based dishes (Life Technologies) and incubated overnight at 37 °C to allow the cells to adhere. After serum starvation for 6 h, cells were stimulated with chemokine at a concentration of 100 ng mL^–1, then fixed with 4% paraformaldehyde (Wako) and permeabilized with 0.1% Triton X-100 (Wako) in PBS, followed by staining with phalloidin conjugated with Alexa Fluor 594 (Life Technologies). […] Tumor macrophages were isolated from collagenase digestion of tumor tissue as attached cells by washing non-adherent cells away and further culturing them in DMEM containing 10 nM M-CSF (BD Biosciences) and 10% serum. After co-culture with LLC tumor cells, confocal images were obtained using an SP5 confocal microscope (Leica Microsystems). Cells were classified as lamellipodial/round-shaped or filopodial based on their morphology and the ratio of each type in the visual field determined.

For another experiment, the target named is T3, FROUNT-CCR2 interaction (Homo sapiens, UniProt Q9BW27).
T3 construct: GST-fused FROUNT (FNT-C)
T3 sequence (Q9BW27 500-656 limits assumed): T1 sequence (Q9BW27 500-656 limits assumed)
The experiment can be described thus: HTRF FROUNT-CCR2 interaction assay. The experiment is classed as binding.

The source of these data is PMC6992764 (Nature Communications, 2020).

What is called IC50 is the point on the concentration scale where inhibition reaches its midpoint. Low values mean higher potency, high ones lower potency.

Protocol for LLC tumor cells: To evaluate the effects of compounds on cell growth, cells were incubated with inhibitors for 48 h, then WST-1 (Dojindo) was added to the culture for the final 30 min. An Envision instrument (PerkinElmer) was used to measure the absorbance of each well at 450 nm versus a 650-nm reference to detect the amount of formazan produced from WST-1 by mitochondrial dehydrogenases in viable cells.

Take `CCN(CC)C(=S)SSC(=S)N(CC)CC` [DSF, disulfiram]: the in vitro growth entry in the experiment with LLC tumor cells is reported as “no effect”. Also, at FROUNT-CCR5 interaction, the “inhibition of FROUNT-CCR5 interaction” value is “specifically inhibited”. Also, the “growth of established tumors” value in experiment [1] is listed as “impaired”. Moreover, at C603S FROUNT, the “binding to C603S FROUNT” value is recorded as “No significant binding”. Moreover, the “membrane localization of PH-Akt upon CCL2 stimulation” value in experiment [2] is “significantly impaired”. Also, the CCL2-induced pseudopodia protrusion entry in the experiment with peritoneal macrophages is “inhibited”. The “inhibition of FROUNT-CCR2 interaction” value against FROUNT-CCR2 interaction (HTRF) is reported as “specifically inhibited”. Further, the IC50 against FROUNT-CCR2 interaction (HTRF titration assay) was 0.042 µM.
